Data on one compound can be found in patent US20090297478A1, “Methods and Compositions for the Treatment of Lupus Using Clofarabine” (priority 2002, published 2009).

Data set [1] is described as follows: maximum tolerated dose of clofarabine. Type of data set: in vivo. To be noted: species and route not given. The protocol:
It may be necessary to use dosages of the active ingredient outside the ranges disclosed herein in some cases, as will be apparent to those of ordinary skill in the art, but the dosage should not fall below 0.01 mg/kg/day. The maximum tolerated doses of clofarabine is approximately 80 mg/kg per day. Furthermore, it is noted that the clinician or treating physician will know how and when to interrupt, adjust, or terminate therapy in conjunction with individual patient response.

Data set [2] in a line: degradation of the drug during dissolution, lyophilization and drying (parenteral formulation). Type of data set: physicochemical. To be noted: dissolved in 1:1 tertiary butanol/Water for Injection at 5° C., lyophilized at −16° C. for 48 hours, dried at 15° C. under high vacuum for 48 hours, protected from light. The procedure:
Clofarabine, 9.86 g, is wetted/partially dissolved with 600 mL of a 9:1 mixture of tertiary butanol and Water for Injection USP which is pre-cooled to 5° C. Once the drug powder is completely wetted, dissolution is completed by the addition of 600 mL of a 1:9 mixture of tertiary butanol and Water for Injection and 766 mL of a 1:1 mixture of tertiary butanol and Water for Injection which likewise is pre-cooled to 5° C. thereby making the final solution a 1:1 mixture. The dissolution is carried out under protection from light.
The solution formed above is promptly lyophilized in a Virtis INOTOP lyophilizer at −16° C. under light protectant conditions over a period of 48 hours. The resultant lyophilized product (lyophile) is then further dried at 15° C. under high vacuum for 48 hours. […] The lyophile is packaged under sterile conditions into 30 mL vials, each containing 50 mg of drug, 50 mg of mannitol and sodium hydroxide to adjust the pH to 7.7 and standard excess to allow for vial/needle/syringe loss.

Structures are written as SMILES.

As for `Nc1nc(Cl)nc2c1ncn2[C@@H]1O[C@H](CO)[C@@H](O)[C@@H]1F` [Clofarabine, 2-Chloro-9-(2-deoxy-2-fluoro-β-D-arabinofuranosyl)adenine], in data set [1], the maximum tolerated dose result is “approximately 80 mg/kg per day”. The “degradation of the drug” value in data set [2] is reported as “No detectable degradation”.
